Measured values published in BindingDB's records for doi:10.1021/jm00375a008 (1984).

Target: Progesterone receptor (Gallus gallus) (UniProt P07812)
Experiment: Equilibrium dissociation constant for chick oviduct progesterone receptor

Sequence of Progesterone receptor (Gallus gallus) (P07812 whole entry, looked up): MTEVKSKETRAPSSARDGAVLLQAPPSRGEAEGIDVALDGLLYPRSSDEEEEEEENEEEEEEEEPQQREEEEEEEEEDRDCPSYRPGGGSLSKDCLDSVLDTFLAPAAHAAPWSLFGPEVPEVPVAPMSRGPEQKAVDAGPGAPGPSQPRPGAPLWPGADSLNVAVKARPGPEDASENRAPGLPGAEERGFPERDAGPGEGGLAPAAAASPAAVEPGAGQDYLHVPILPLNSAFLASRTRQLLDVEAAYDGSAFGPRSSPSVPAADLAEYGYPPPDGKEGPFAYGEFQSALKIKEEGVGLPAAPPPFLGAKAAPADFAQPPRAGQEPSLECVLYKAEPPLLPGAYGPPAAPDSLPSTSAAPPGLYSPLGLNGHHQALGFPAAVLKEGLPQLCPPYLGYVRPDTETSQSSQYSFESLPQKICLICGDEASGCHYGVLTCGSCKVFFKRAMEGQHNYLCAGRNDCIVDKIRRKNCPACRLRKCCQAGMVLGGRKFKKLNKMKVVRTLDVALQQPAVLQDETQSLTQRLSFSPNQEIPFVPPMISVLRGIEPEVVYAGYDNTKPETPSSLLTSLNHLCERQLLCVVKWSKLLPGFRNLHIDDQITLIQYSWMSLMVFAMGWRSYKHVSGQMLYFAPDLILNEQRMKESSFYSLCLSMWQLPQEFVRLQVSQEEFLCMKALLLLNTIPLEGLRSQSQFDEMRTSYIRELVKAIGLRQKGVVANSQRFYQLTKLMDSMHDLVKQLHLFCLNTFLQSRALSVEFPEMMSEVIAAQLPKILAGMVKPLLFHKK

SMILES: C#C[C@@H](O)C12CCCC1C1CCC3=CC(=O)CC[C@@H]3C1CC2 (stereo partly specified)
- Kd: 160 nM
